Measured values from article PMC6691785, “Computer-aided design and synthesis of 3-carbonyl-5-phenyl-1H-pyrazole as highly selective and potent BRAFV600E and CRAF inhibitor” (Journal of Enzyme Inhibition and Medicinal Chemistry, 2019).

Assays:
BRAFV600E [1] = target: T1, BRAFV600E (Homo sapiens, UniProt P15056, V600E); assay: Enzymatic activity (IC50) on BRAFV600E; type: biochemical; details: for IC50: enzymatic activity; for times more potent for BRAFV600E than the previous series: versus N-(3-(3-alkyl-1H-pyrazol-5-yl)phenyl)-aryl amide derivatives
Protocol: (§1) The IC50 values for BRAFV600E and CRAF were measured for each of the 12 compounds synthesised (Table 1). The compounds were all designed as 1, 3, 5-substituted benzyl group hydrophobic tails to maintain the selectivity of the previous series.

BRAFWT = BRAFWT (Homo sapiens, UniProt P15056); assay: Enzymatic activity (IC50) on BRAFWT; type: biochemical
Protocol: (§2) Next, we used kinase panel screening in duplicate for compound 23b over 35 different kinases at a single-dose concentration of 10 μM (Table 2). The compound was indeed a selective BRAFV600E and CRAF inhibitor with an excellent selectivity profile. This compound has an inhibitory activity of more than 90% on CRAF and BRAF V600E at a concentration of 10 μM; the inhibition activity was less than 20% for most other kinases, including wild-type BRAF. We further determined the IC50 value of 23b on wild-type BRAF to be over than 20 μM, where we could confirm selectivity (Table 3). In order to investigate the effect of 23b in living cells, the human colon cancer cell line […] expressing wild-type BRAF and the malignant melanoma A375 cell line expressing BRAFV600E were treated with increasing concentrations of 23b.

CRAF [2] = target: T2, CRAF (Homo sapiens, UniProt P04049); assay: Enzymatic activity (IC50) on CRAF; type: biochemical; details: for IC50: enzymatic activity
Protocol: as §1

BRAFV600E [3] = target: T1, BRAFV600E; details: selectivity over BRAFWT; cited from earlier work
CRAF [4] = target: T2, CRAF; details: selectivity over BRAFWT; cited from earlier work
BRAFV600E [5] = target: T1, BRAFV600E; assay: Kinase panel screening, single dose 10 μM, BRAF V600E; type: biochemical; details: in duplicate, read-out: inhibitory activity on BRAF V600E
Protocol: as §2
(§3) We designed and synthesized selective, efficacious inhibitors for BRAFV600E and CRAF by in silico modeling using the Maestro programme.[20] […] We attempted kinase panel screening for compound 23b over 35 different kinases at a single-dose concentration of 10 μM (Table 2, performed in duplicate). The compound was, indeed, a selective BRAFV600E and CRAF inhibitor with an excellent selectivity profile. This compound has an inhibitory activity of 99% on BRAF V600E and CRAF at this concentration. The inhibition activity was less than 20% in most other kinases, including BRAFWT.

35 different kinases = assay: Kinase panel screening, single dose 10 μM, other kinases of the panel; type: biochemical; details: in duplicate, most other kinases of the 35-kinase panel
Protocol: as §2, §3

[6] = test system: malignant melanoma A375 cell line expressing BRAFV600E; assay: MTT assay, A375 cells; type: cell-based; details: Homo sapiens, A-375
Protocol: as §2

wild-type BRAF = wild-type BRAF (Homo sapiens, UniProt P15056); assay: Kinase panel screening, single dose 10 μM, wild-type BRAF; type: biochemical; details: in duplicate
Protocol: as §2, §3

[7] = test system: human colon cancer cell line SW620 expressing wild-type BRAF; assay: MTT assay, SW620 cells; type: cell-based
Protocol: as §2

CRAF [8] = target: T2, CRAF; assay: Kinase panel screening, single dose 10 μM, CRAF; type: biochemical; details: in duplicate, read-out: inhibitory activity on CRAF
Protocol: as §2, §3

Sequence of BRAFWT (P15056 whole entry): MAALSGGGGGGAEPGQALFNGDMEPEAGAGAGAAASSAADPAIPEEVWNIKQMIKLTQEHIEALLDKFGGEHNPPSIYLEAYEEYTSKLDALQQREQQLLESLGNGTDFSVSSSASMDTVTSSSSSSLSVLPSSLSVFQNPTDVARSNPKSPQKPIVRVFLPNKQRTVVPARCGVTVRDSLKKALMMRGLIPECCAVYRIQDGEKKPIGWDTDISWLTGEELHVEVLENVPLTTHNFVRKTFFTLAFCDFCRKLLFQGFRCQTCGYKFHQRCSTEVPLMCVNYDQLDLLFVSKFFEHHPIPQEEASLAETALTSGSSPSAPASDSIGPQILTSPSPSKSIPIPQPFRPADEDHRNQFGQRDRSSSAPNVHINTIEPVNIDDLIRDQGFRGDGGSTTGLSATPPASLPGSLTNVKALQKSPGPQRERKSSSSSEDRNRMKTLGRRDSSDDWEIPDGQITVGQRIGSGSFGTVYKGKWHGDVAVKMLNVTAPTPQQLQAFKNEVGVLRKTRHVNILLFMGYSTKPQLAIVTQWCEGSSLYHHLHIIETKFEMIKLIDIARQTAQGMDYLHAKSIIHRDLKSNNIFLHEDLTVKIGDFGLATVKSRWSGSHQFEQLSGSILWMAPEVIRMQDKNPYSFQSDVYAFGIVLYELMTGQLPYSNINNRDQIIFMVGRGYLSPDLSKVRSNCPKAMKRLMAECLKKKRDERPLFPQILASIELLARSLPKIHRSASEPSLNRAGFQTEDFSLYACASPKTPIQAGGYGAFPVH
T1 sequence (P15056 whole entry V600E): as the sequence (P15056 whole entry) above, with V600E counted along it
T2 sequence (P04049 whole entry): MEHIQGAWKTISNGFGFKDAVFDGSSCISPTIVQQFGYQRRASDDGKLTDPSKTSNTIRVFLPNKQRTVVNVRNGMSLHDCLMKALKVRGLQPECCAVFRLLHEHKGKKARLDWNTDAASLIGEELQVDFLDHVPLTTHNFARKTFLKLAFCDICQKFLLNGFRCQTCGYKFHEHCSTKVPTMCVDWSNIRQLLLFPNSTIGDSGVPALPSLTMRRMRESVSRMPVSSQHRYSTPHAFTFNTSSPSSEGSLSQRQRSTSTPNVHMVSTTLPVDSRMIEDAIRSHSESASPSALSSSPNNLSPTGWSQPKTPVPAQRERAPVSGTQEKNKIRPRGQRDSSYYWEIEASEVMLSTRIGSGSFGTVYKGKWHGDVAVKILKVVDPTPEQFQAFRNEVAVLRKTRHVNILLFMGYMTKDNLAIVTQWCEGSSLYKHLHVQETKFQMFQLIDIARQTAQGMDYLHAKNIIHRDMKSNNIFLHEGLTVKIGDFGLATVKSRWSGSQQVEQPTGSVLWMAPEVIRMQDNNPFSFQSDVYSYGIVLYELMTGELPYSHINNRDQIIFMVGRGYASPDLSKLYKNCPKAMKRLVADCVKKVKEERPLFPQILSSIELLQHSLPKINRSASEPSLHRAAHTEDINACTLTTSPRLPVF
Sequence of wild-type BRAF (P15056 whole entry): as the sequence (P15056 whole entry) above

Row | SMILES | IC50 (BRAFV600E [1]) [nM] | IC50 (BRAFWT) [nM] | IC50 (CRAF [2]) [nM] | other results
1 | O=C(Nc1cccc(-c2cc(C(=O)OCCN3CCOCC3)[nH]n2)c1)c1cc(N2CCOCC2)cc(C(F)(F)F)c1 [Compound 23a] | 680 | > 20000 | 130 | –
2 | Cc1nccn1-c1cc(C(=O)Nc2cccc(-c3cc(C(=O)NCCN4CCNCC4)[nH]n3)c2)cc(C(F)(F)F)c1 [Compound 22b] | 1260 | 12900 | 830 | –
3 | CN1CCN(c2cc(C(=O)Nc3cccc(-c4cc(C(=O)OCCN5CCOCC5)[nH]n4)c3)cc(C(F)(F)F)c2)CC1 [Compound 23d] | 680 | > 20000 | 160 | –
4 | CC(C)c1cc(-c2cccc(NC(=O)c3cc(N4CCN(C)CC4)cc(C(F)(F)F)c3)c2)[nH]n1 [Compound 2, N-(3–(3-alkyl-1H-pyrazol-5-yl)phenyl)-aryl amide] | – | – | – | times more potent on BRAFV600E than on BRAFWT (BRAFV600E [3]): 20 times; times more potent on CRAF than on BRAFWT (CRAF [4]): 126 times
5 | Cc1cn(-c2cc(C(=O)Nc3cccc(-c4cc(C(=O)NCCN5CCNCC5)[nH]n4)c3)cc(C(F)(F)F)c2)cn1 [Compound 22c] | 1510 | – | 580 | –
6 | Cc1nccn1-c1cc(C(=O)Nc2cccc(-c3cc(C(=O)NCCN4CCOCC4)[nH]n3)c2)cc(C(F)(F)F)c1 [Compound 20b] | 980 | 13100 | 590 | –
7 | O=C(Nc1cccc(-c2cc(C(=O)OCCN3CCCCC3)[nH]n2)c1)c1cc(N2CCOCC2)cc(C(F)(F)F)c1 [Compound 24] | 400 | > 20000 | 210 | –
8 | O=C(Nc1cccc(-c2cc(C(=O)NCCN3CCNCC3)[nH]n2)c1)c1cc(N2CCOCC2)cc(C(F)(F)F)c1 [Compound 22a] | 2090 | > 20000 | 1600 | –
9 | Cc1nccn1-c1cc(C(=O)Nc2cccc(-c3cc(C(=O)OCCN4CCOCC4)[nH]n3)c2)cc(C(F)(F)F)c1 [Compound 23b] | 100 | > 20000 | 20 | times more potent for BRAFV600E than the previous series (BRAFV600E [1]): 7 times; times more potent for BRAFV600E than the previous series (BRAFV600E [1]; listed as 23 b): seven; inhibition at 10 µM (BRAFV600E [5]): > 90%; inhibition activity for most other kinases (35 different kinases): less than 20%; GI50 [6]: 70 nM; inhibition at 10 µM (wild-type BRAF): < 20%; GI50 ([7]; Homo sapiens, SW-620, SW620 cells expressing BRAFWT): > 10000 nM; inhibition of the proliferation ([7]; increasing concentrations, SW620 cells expressing BRAFWT): not in the cells expressing BRAFWT; inhibition at 10 µM (CRAF [8]): > 90%; times more potent for CRAF than the previous series (CRAF [2]; versus N-(3-(3-alkyl-1H-pyrazol-5-yl)phenyl)-aryl amide derivatives): 5 times
10 | Cc1cn(-c2cc(C(=O)Nc3cccc(-c4cc(C(=O)NCCN5CCOCC5)[nH]n4)c3)cc(C(F)(F)F)c2)cn1 [Compound 20c] | 910 | 14700 | 580 | –
11 | O=C(Nc1cccc(-c2cc(C(=O)NCCN3CCOCC3)[nH]n2)c1)c1cc(N2CCOCC2)cc(C(F)(F)F)c1 [Compound 20a] | 2800 | 16400 | 1500 | –
12 | Cc1cn(-c2cc(C(=O)Nc3cccc(-c4cc(C(=O)OCCN5CCOCC5)[nH]n4)c3)cc(C(F)(F)F)c2)cn1 [Compound 23c] | 330 | > 20000 | 60 | –
13 | CN1CCN(c2cc(C(=O)Nc3cccc(-c4cc(C(=O)NCCN5CCOCC5)[nH]n4)c3)cc(C(F)(F)F)c2)CC1 [Compound 20d] | 2700 | > 20000 | 1150 | –
